The values that follow are results of earlier work, collected in patent publication US20110270212A1, “PHARMACOKINETIC CONTROL FOR OPTIMIZED INTERFERON DELIVERY” (MEDTRONIC, INC., priority 2007, published 2011).

The conditions of data set [1]: subcutaneously.
Data set [2] concerns Hepatitis C virus replication (replicon model). The note with it: via protease inhibition.
Data set [3] has as its system HCV. Conditions: ribavirin combined with interferon-α, genotype 1 population.
Data set [4] relates to HCV. Conditions: across all dosing arms.
The subject of data set [5] is HCV. The note with it: in vivo.
For data set [6], the system named is HCV. The note with it: oral doses up to 4500 mg.

Take interferon-α: in data set [1], the “dose administered without adverse reactions” value is “up to 300 million IU/m^2”.
Turning to `COc1ccc2c(O[C@@H]3C[C@H]4C(=O)N[C@]5(C(=O)NS(=O)(=O)C6CC6)C[C@H]5/C=C\CCCCN(C)C(=O)[C@@H]4C3)cc(-c3nc(C(C)C)cs3)nc2c1C` [TMC435350], in data set [2], the “Hepatitis C virus replication in replicon experiments” value is recorded as “reduce the amount of Hepatitis C virus replication”.
As to `NC(=O)c1ncn([C@@H]2O[C@H](CO)[C@@H](O)[C@H]2O)n1` [ribavirin, 1-β-D-ribofuranosyl-1H-1,2,4-triazole-3-carboxamide], the “therapeutic effectiveness of the combination” value in data set [3] is on record as 29%.
For `CC(C)C(=O)OC[C@H]1O[C@@H](n2ccc(N)nc2=O)[C@](C)(F)[C@@H]1OC(=O)C(C)C` [R71278], the antiviral activity entry in data set [4] is given as “dose-dependent antiviral activity”.
Turning to `[N-]=[N+]=N[C@]1(CO)O[C@@H](n2ccc(N)nc2=O)[C@H](O)[C@@H]1O` [R1626, 4′-azidocytidine], the “response with pegylated interferon/ribavirin” value in data set [5] is on record as “good response”. For the same compound, in data set [6], the tolerability entry is reported as “generally well-tolerated with increasing adverse events at the highest dose”.
